Measured values from US10093627B2, “Tetrahydroquinoline derivatives and their use as Epac inhibitors” (Institut National de la Sante et de la Recherche Medicale …, priority 2012, dated 2018).

Molecular target: T1, Epac2(B) (Homo sapiens, UniProt Q8WZA2)
T1 construct: Human Epac2(B) (amino acids 283-1011) lacks the first 283 amino acids of Epac2; made in house; host or cells: Escherichia coli Rosetta 2(DE3)
T1 sequence (Q8WZA2 283-1011): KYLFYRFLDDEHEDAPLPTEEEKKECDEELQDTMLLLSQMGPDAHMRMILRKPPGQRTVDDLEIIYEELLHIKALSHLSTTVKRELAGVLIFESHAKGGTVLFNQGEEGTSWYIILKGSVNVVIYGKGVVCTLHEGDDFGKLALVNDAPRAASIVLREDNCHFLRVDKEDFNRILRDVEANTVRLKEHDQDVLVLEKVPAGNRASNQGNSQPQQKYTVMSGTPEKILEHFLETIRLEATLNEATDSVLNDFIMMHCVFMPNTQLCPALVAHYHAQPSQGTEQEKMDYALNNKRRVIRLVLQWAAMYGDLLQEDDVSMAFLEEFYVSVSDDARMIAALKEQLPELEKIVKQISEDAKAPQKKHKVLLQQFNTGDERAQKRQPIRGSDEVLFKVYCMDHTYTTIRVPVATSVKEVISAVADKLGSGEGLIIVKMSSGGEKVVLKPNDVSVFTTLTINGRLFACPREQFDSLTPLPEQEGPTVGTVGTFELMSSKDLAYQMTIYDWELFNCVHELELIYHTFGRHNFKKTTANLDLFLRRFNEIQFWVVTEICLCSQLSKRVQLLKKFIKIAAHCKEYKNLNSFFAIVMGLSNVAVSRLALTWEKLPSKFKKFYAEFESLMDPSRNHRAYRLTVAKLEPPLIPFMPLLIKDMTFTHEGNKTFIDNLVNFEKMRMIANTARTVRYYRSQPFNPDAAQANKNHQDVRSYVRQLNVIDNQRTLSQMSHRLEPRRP
Assay: In vitro GEF activity (initial velocity of GDP exchange on Rap1A) of Epac2(B)
Type: biochemical
Text: Human Epac2(AB) (amino acids 43-1011) carries both the CNB-A and the CNB-B domains. Human Epac2(B) (amino acids 283-1011) lacks the first 283 amino acids of Epac2. It is therefore deleted of its CNB-A and DEP domains, but retains the CNB-B domain and the full catalytic region. Epac2(AB) was obtained by HindIII/NotI restriction and Epac2(B) was obtained by Ssp1/Not1 restriction of a human Epac2A cDNA (a gift from Ann M Graybiel, Department of Brain and Cognitive Sciences, MIT, Cambridge). Both cDNA fragments were inserted into pET41a (Novagen), expressed in Escherichia coli Rosetta 2(DE3) (Novagen), and the GST-tagged fusion proteins were purified by nickel-nitrilotriacetic acid beads (Qiagen), as described in D. Courilleau, et al., Identification of a tetrahydroquinoline analog as a pharmacological inhibitor of the cAMP-binding protein Epac, J. Biol. Chem. 287 (2012) 44192-44202).
In vitro GDP exchange catalyzed by Epac was measured using purified recombinant Epac isoforms and Rap1A loaded with Bodipy-GDP, as described in D. Courilleau, et al (above mentioned). The GEF activity of Epac proteins was initiated by injection of the agonist. Stock solutions of CE3F4 and its analogs (12 mM in 100% DMSO) were kept at −20° C. and were diluted in assay buffer (0.67% final DMSO concentration) just before use for GDP exchange assays. The release of Bodipy-GDP was measured in real time as the decay of fluorescence. A single exponential was fit to the time-course data using the Graphpad Prism program. The initial velocity (Vi) of GDP exchange on Rap1 was calculated as described in D. Courilleau et al.).
Data are expressed as mean±S.D. Differences in quantitative variables were examined by unpaired one- or two-tailed Student's t test. EC50 and IC50 values were computed according to a four-parameters dose-response model and compared on the basis of the extra sum-of square F test, using Graphpad Prism. Two-tailed Wilcoxon matched-pair signed rank tests were performed using GraphPad Prism.

- Inhibitory effect on GEF activity of Epac2(B), compared with Epac2(AB) (50 μM racemic CE3F4, agonist 50 μM 007 or 300 μM cAMP, FIG. 6A): no significant difference
- IC50 (Epac2(B) activated by 300 μM cAMP): 66 µM
- Antagonism of cAMP-activated Epac2(B) GEF activity (compound 30 μM, 300 μM cAMP, FIG. 6C): stronger antagonist
Structure (SMILES): CC1CCc2c(cc(Br)c(F)c2Br)N1C=O (racemic) [CE3F4]
